In patent US9023821B2, “Use of MicroRNA for treating diseases associated with a dysfunction of the cilia in multiciliated epithelial cells” (Centre National de la Recherche Scientifique, priority 2009, dated 2015):

Key:
[1] = system: human airway epithelial cells (HAECs); assay: High-throughput sequencing (HTS) of miRNAs at four stages of differentiation of HAECs; conditions: for Modulation (ratio of the level of intensity of expression in log2 in two stages of differentiation) measured by high-throughput sequencing, D7 − D0 / Modulation (ratio of the level of intensity of expression in log2 in two stages of differentiation) measured by high-throughput sequencing, FC − D7 / Modulation (ratio of the level of intensity of expression in log2 in two stages of differentiation) measured by high-throughput sequencing, WD − D0 / Modulation (ratio of the level of intensity of expression in log2 in two stages of differentiation) measured by high-throughput sequencing, WD − FC / Level of intensity of expression in log2 measured by high-throughput sequencing, D0 / Level of intensity of expression in log2 measured by high-throughput sequencing, D7 / Level of intensity of expression in log2 measured by high-throughput sequencing, FC / Level of intensity of expression in log2 measured by high-throughput sequencing, WD: Table VI; for Level of intensity of expression in log2 At the differentiated stage (WD) measured in HTS: healthy human airway epithelial tissue; for Level of intensity of expression in log2 measured by high-throughput sequencing, D0: stage D0; for Level of intensity of expression in log2 measured by high-throughput sequencing, D7: stage D7; for Level of intensity of expression in log2 measured by high-throughput sequencing, FC: stage FC; for Level of intensity of expression in log2 At the differentiated stage (WD) measured in HTS / Level of intensity of expression in log2 measured by high-throughput sequencing, WD: stage WD
In short: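 Cells at four air-liquid interface differentiation stages were lysed and total RNA with miRNAs purified. Adaptor Mix A or B ligation (16° C, 2-16 h) allowed 5′ or 3′ end sequencing. Abundance cut-off was 1% of total miRNAs in at least one stage.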

[2] = system: basal cells and pyramidal cells of the airway epithelium; assay: miRNA expression in sorted basal cells versus pyramidal cells (ciliated + secretory), HTS and Agilent chips; parameters: species or system human; conditions: for Modulation of expression of the miRNAs in pyramidal cells (323(−)) relative to basal cells 323(+): HTS and Agilent chips; for Intensity of the level of expression in log2 in pyramidal cells (323(−)): pyramidal cells (ciliated + secretory)
In short: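 Read-out is miRNA profiling of total RNA, by Agilent chips or by high-throughput sequencing, in two sorted populations. These were basal cells (CD151+/TF+) and pyramidal ciliated/secretory cells (CD151−/TF−) from airway epithelium of 3 donors.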

[3] = system: human airway epithelial cells (HAECs); assay: Agilent miRNA chips, miRNA expression at four stages of differentiation of HAECs; conditions: for Modulation (ratio of the level of intensity of expression in log2 in two stages of differentiation) measured with the Agilent chips, D7 − D0 / Modulation (ratio of the level of intensity of expression in log2 in two stages of differentiation) measured with the Agilent chips, FC − D7 / Modulation (ratio of the level of intensity of expression in log2 in two stages of differentiation) measured with the Agilent chips, WD − D0 / Modulation (ratio of the level of intensity of expression in log2 in two stages of differentiation) measured with the Agilent chips, WD − FC / Level of intensity of expression in log2 measured with the Agilent chips, D0 / Level of intensity of expression in log2 measured with the Agilent chips, D7 / Level of intensity of expression in log2 measured with the Agilent chips, FC / Level of intensity of expression in log2 measured with the Agilent chips, WD: Table VI; for Modulation (ratio of the level of intensity of expression in log2 at two stages of differentiation), FC − D7 / Modulation (ratio of the level of intensity of expression in log2 at two stages of differentiation), WD − FC: Agilent miRNA chips, Table V; for Level of intensity of expression in log2 measured with the Agilent chips, D0: stage D0; for Level of intensity of expression in log2 measured with the Agilent chips, D7: stage D7; for Level of intensity of expression in log2 measured with the Agilent chips, FC: stage FC; for Level of intensity of expression in log2 measured with the Agilent chips, WD: stage WD
In short: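 Patient RNA samples, the same ones analysed by high-throughput sequencing, were first labelled, then hybridized onto arrays carrying 866 human and 89 human viral miRNAs (miRBase v.12.0), following the supplied labelling and hybridization protocol.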

“hsa-miR-181a: human miRNA, SEQ ID No. 12 (AACAUUCAACGCUGUCGGUGAGU; expressed or natural sequence; listed as Homo sapiens)” was tested, and the “Modulation (ratio of the level of intensity of expression in log2 in two stages of differentiation) measured by high-throughput sequencing, D7 − D0” value [1] was 0.00 log2, the “Modulation (ratio of the level of intensity of expression in log2 in two stages of differentiation) measured by high-throughput sequencing, FC − D7” value [1] was 0.00 log2 and the “Modulation (ratio of the level of intensity of expression in log2 in two stages of differentiation) measured by high-throughput sequencing, WD − D0” value [1] was 0.00 log2. For the same substance, the “Modulation (ratio of the level of intensity of expression in log2 in two stages of differentiation) measured by high-throughput sequencing, WD − FC” value [1] was 0.00 log2, the “Level of intensity of expression in log2 At the differentiated stage (WD) measured in HTS” value [1] was 0.01 log2 and the “Level of intensity of expression in log2 measured by high-throughput sequencing, D0” value [1] was 0.01 log2. The “Level of intensity of expression in log2 measured by high-throughput sequencing, D7” value [1] was 0.01 log2, the “Level of intensity of expression in log2 measured by high-throughput sequencing, FC” value [1] was 0.01 log2 and the “Level of intensity of expression in log2 measured by high-throughput sequencing, WD” value [1] was 0.01 log2. The “Modulation of expression of the miRNAs in pyramidal cells (323(−)) relative to basal cells 323(+)” value [2] was −2.29, the “Intensity of the level of expression in log2 in basal cells (323(+))” value (from here on “Intensity … in log2 in basal cells (323(+))”) [2] was 6.88 log2 and the “Intensity of the level of expression in log2 in pyramidal cells (323(−))” value (from here on “Intensity … in log2 in pyramidal cells (323(−))”) [2] was 4.59 log2. The “Modulation (ratio of the level of intensity of expression in log2 in two stages of differentiation) measured with the Agilent chips, D7 − D0” value [3] was 1.41 log2, the “Modulation (ratio of the level of intensity of expression in log2 at two stages of differentiation), FC − D7” value [3] was −0.84 log2 and the “Modulation (ratio of the level of intensity of expression in log2 in two stages of differentiation) measured with the Agilent chips, FC − D7” value [3] was −0.84 log2. For the same substance, the “Modulation (ratio of the level of intensity of expression in log2 in two stages of differentiation) measured with the Agilent chips, WD − D0” value [3] was 0.20 log2, the “Modulation (ratio of the level of intensity of expression in log2 at two stages of differentiation), WD − FC” value [3] was −0.37 log2 and the “Modulation (ratio of the level of intensity of expression in log2 in two stages of differentiation) measured with the Agilent chips, WD − FC” value [3] was −0.37 log2. The “Level of intensity of expression in log2 measured with the Agilent chips, D0” value [3] was 7.05 log2, the “Level of intensity of expression in log2 measured with the Agilent chips, D7” value [3] was 8.47 log2 and the “Level of intensity of expression in log2 measured with the Agilent chips, FC” value [3] was 7.62 log2. The “Level of intensity of expression in log2 measured with the Agilent chips, WD” value [3] was 7.25 log2.

“hsa-miR-15a: human miRNA, SEQ ID No. 9 (UAGCAGCACAUAAUGGUUUGUG; expressed or natural sequence; listed as Homo sapiens)” was tested, and the “Modulation (ratio of the level of intensity of expression in log2 in two stages of differentiation) measured by high-throughput sequencing, D7 − D0” value [1] was 1.41 log2, the “Modulation (ratio of the level of intensity of expression in log2 in two stages of differentiation) measured by high-throughput sequencing, FC − D7” value [1] was −0.19 log2 and the “Modulation (ratio of the level of intensity of expression in log2 in two stages of differentiation) measured by high-throughput sequencing, WD − D0” value [1] was 1.57 log2. The “Modulation (ratio of the level of intensity of expression in log2 in two stages of differentiation) measured by high-throughput sequencing, WD − FC” value [1] was 0.35 log2, the “Level of intensity of expression in log2 At the differentiated stage (WD) measured in HTS” value [1] was 7.68 log2 and the “Level of intensity of expression in log2 measured by high-throughput sequencing, D0” value [1] was 6.11 log2. The “Level of intensity of expression in log2 measured by high-throughput sequencing, D7” value [1] was 7.52 log2, the “Level of intensity of expression in log2 measured by high-throughput sequencing, FC” value [1] was 7.33 log2 and the “Level of intensity of expression in log2 measured by high-throughput sequencing, WD” value [1] was 7.68 log2. The “Modulation of expression of the miRNAs in pyramidal cells (323(−)) relative to basal cells 323(+)” value [2] was −2.10, the “Intensity … in log2 in basal cells (323(+))” value [2] was 7.86 log2 and the “Intensity … in log2 in pyramidal cells (323(−))” value [2] was 5.75 log2. The “Modulation (ratio of the level of intensity of expression in log2 in two stages of differentiation) measured with the Agilent chips, D7 − D0” value [3] was 2.36 log2, the “Modulation (ratio of the level of intensity of expression in log2 at two stages of differentiation), FC − D7” value [3] was −0.39 log2 and the “Modulation (ratio of the level of intensity of expression in log2 in two stages of differentiation) measured with the Agilent chips, FC − D7” value [3] was −0.39 log2. The “Modulation (ratio of the level of intensity of expression in log2 in two stages of differentiation) measured with the Agilent chips, WD − D0” value [3] was 1.87 log2, the “Modulation (ratio of the level of intensity of expression in log2 at two stages of differentiation), WD − FC” value [3] was −0.10 log2 and the “Modulation (ratio of the level of intensity of expression in log2 in two stages of differentiation) measured with the Agilent chips, WD − FC” value [3] was −0.10 log2. The “Level of intensity of expression in log2 measured with the Agilent chips, D0” value [3] was 7.74 log2, the “Level of intensity of expression in log2 measured with the Agilent chips, D7” value [3] was 10.10 log2 and the “Level of intensity of expression in log2 measured with the Agilent chips, FC” value [3] was 9.71 log2. For the same substance, the “Level of intensity of expression in log2 measured with the Agilent chips, WD” value [3] was 9.61 log2.

In the case of “hsa-miR-29a: human miRNA, SEQ ID No. 31 (UAGCACCAUCUGAAAUCGGUUA; expressed or natural sequence; listed as Homo sapiens)”, the “Modulation (ratio of the level of intensity of expression in log2 in two stages of differentiation) measured by high-throughput sequencing, D7 − D0” value [1] was −1.34 log2, the “Modulation (ratio of the level of intensity of expression in log2 in two stages of differentiation) measured by high-throughput sequencing, FC − D7” value [1] was −0.11 log2 and the “Modulation (ratio of the level of intensity of expression in log2 in two stages of differentiation), D7 − D0” value ([1]; HTS) was −1.34 log2. For the same substance, the “Modulation (ratio of the level of intensity of expression in log2 in two stages of differentiation), FC − D7” value ([1]; HTS) was −0.11 log2, the “Modulation (ratio of the level of intensity of expression in log2 in two stages of differentiation), WD − FC” value ([1]; HTS) was 0.02 log2 and the “Abundance (%), D0” value ([1]; HTS, ALI-D0) was 17.01%. The “Abundance (%), D7” value ([1]; HTS, ALI-D7) was 6.72%, the “Abundance (%), FC” value ([1]; HTS, ALI-FC) was 6.02% and the “Abundance (%), WD” value ([1]; HTS, ALI-WD) was 4.64%. The “Modulation (ratio of the level of intensity of expression in log2 in two stages of differentiation) measured by high-throughput sequencing, WD − D0” value [1] was −1.43 log2, the “Modulation (ratio of the level of intensity of expression in log2 in two stages of differentiation) measured by high-throughput sequencing, WD − FC” value [1] was 0.02 log2 and the “Level of intensity of expression in log2 At the differentiated stage (WD) measured in HTS” value [1] was 14.53 log2. The “Level of intensity of expression in log2 measured by high-throughput sequencing, D0” value [1] was 16.24 log2, the “Level of intensity of expression in log2 measured by high-throughput sequencing, D7” value [1] was 14.90 log2 and the “Level of intensity of expression in log2 measured by high-throughput sequencing, FC” value [1] was 14.79 log2. For the same substance, the “Level of intensity of expression in log2 measured by high-throughput sequencing, WD” value [1] was 14.81 log2, the “Modulation of expression of the miRNAs in pyramidal cells (323(−)) relative to basal cells 323(+)” value [2] was −2.95 and the “Intensity … in log2 in basal cells (323(+))” value [2] was 11.09 log2. The “Intensity … in log2 in pyramidal cells (323(−))” value [2] was 8.14 log2, the “Modulation (ratio of the level of intensity of expression in log2 in two stages of differentiation) measured with the Agilent chips, D7 − D0” value [3] was 0.17 log2 and the “Modulation (ratio of the level of intensity of expression in log2 in two stages of differentiation) measured with the Agilent chips, FC − D7” value [3] was −0.71 log2. The “Modulation (ratio of the level of intensity of expression in log2 in two stages of differentiation) measured with the Agilent chips, WD − D0” value [3] was −0.38 log2, the “Modulation (ratio of the level of intensity of expression in log2 in two stages of differentiation) measured with the Agilent chips, WD − FC” value [3] was 0.16 log2 and the “Level of intensity of expression in log2 measured with the Agilent chips, D0” value [3] was 11.23 log2. For the same substance, the “Level of intensity of expression in log2 measured with the Agilent chips, D7” value [3] was 11.40 log2, the “Level of intensity of expression in log2 measured with the Agilent chips, FC” value [3] was 10.69 log2 and the “Level of intensity of expression in log2 measured with the Agilent chips, WD” value [3] was 10.85 log2.
